Where two headings read alike, the source gives them in different places.
How the values were obtained:
HBV = test: Efficacy of HBV RNAi agents in HepG2.2.15 cells in vitro (sAg KD); assay type: cell-based, Hepatitis B Virus; details: for Max % KD, EXPERIMENT 1 / Max % KD, EXPERIMENT 2: percent knockdown; for Percent sAg remaining at maximum knockdown: percent residual gene activity
Method: Table 9. Efficacy of HBV RNAi agents.
The efficacy of various HBV RNAi agents was tested in HepG2.2.15 cells in vitro. 10 μM was used. […] It is noted that, due to the nature of the HepG2.2.15 cell line, it is difficult to achieve greater than 50% knockdown.

[1] = Serum stability of siRNAs with 3′ end caps in mouse serum; assay type: in vitro ADME; details: 100% mouse serum; 37° C.; up to 24 h; gel, SYBR gold
FVII (Factor VII) = test: RNA interference against FVII by 19-mer siRNAs with 3′ end caps (FIG. 2); parameters: species or system mouse; details: mF7-III 19-mer blunt-ended, A12S17
[2] = Serum stability of siRNAs with 3′ end caps in human serum; assay type: in vitro ADME; details: 100% human serum; 37° C.; up to 24 h; gel, SYBR gold
[3] = Experiment 2, HepG2.2.15 cells, nM printed only at the Experiment 1 and AVERAGE EC50 heads, read-out: EC50, EXPERIMENT 2
[4] = HepG2.2.15 cells in vitro, Experiment 1, read-out: EC50 (nM), EXPERIMENT 1
[5] = average of Experiments 1 and 2, read-out: EC50 (nM), AVERAGE

| Compound | Max % KD, EXPERIMENT 1 (HBV; Experiment 1, HepG2.2.15 cells) | Percent sAg remaining at maximum knockdown (HBV; Experiment 1, HepG2.2.15 cells) | EC50 (HBV; [3]) | Max % KD, EXPERIMENT 2 (HBV; Experiment 2, HepG2.2.15 cells) | Percent sAg remaining at maximum knockdown (HBV; Experiment 2, HepG2.2.15 cells) | EC50 (HBV; [4]) | Max % KD, AVERAGE (HBV; average of Experiments 1 and 2) | EC50 (HBV; [5]) | stability in mouse serum [1] | RNA interference against FVII (FVII (Factor VII)) | stability in human serum [2] |
| --- | --- | --- | --- | --- | --- | --- | --- | --- | --- | --- | --- |
| 7: "HBV RNAi agents numbered 1 to 10"; "The RNAi agents used are listed in Table 8E" (18-mer format) (sense GCUGUAGGCAUAAAUUGGU; antisense ACCAAUUUAUGCCUACAGC; chemistry not given here) [Number 7] | 41.5% | 58.5% | 0.409 nM | 40.3% | 59.7% | 0.038 nM | 40.9% | 0.22 nM | – | – | – |
| 12: "Twelve of the best HBV RNAi agents identified are listed below, in various formats, in Tables 8A-8E, 9 and 10" (sense GGACUUCUCUCAAUUUUCU; antisense AGAAAAUUGAGAGAAGUCC; chemistry not given here) [Number 12] | 36.89% | 63.11% | – | – | – | 0.093 nM | 36.89% | 0.093 nM | – | – | – |
| 9: "HBV RNAi agents numbered 1 to 10"; "The RNAi agents used are listed in Table 8E" (18-mer format) (sense GGAGGCUGUAGGCAUAAAU; antisense AUUUAUGCCUACAGCCUCC; chemistry not given here) [Number 9] | 48.8% | 51.2% | 0.67 nM | 50% | 50% | 0.131 nM | 49.4% | 0.4 nM | – | – | – |
| c1ccc(-c2ccccc2)cc1 [Biphenyl] | – | – | – | – | – | – | – | – | increased stability | allow the RNAi agent to perform RNA interference | increased stability |
| C[C@H](CCC(=O)O)[C@H]1CC[C@H]2[C@@H]3CC[C@@H]4C[C@H](O)CC[C@]4(C)[C@H]3CC[C@]12C [lithochol, lithocholic acid] | – | – | – | – | – | – | – | – | increased stability | – | less stable |
| 10: "HBV RNAi agents numbered 1 to 10"; "The RNAi agents used are listed in Table 8E" (18-mer format) (sense GAGAUUAGGUUAAAGGUCU; antisense AGACCUUUAACCUAAUCUC; chemistry not given here) [Number 10] | 57.3% | 42.7% | 0.437 nM | 50.9% | 49.1% | 0.066 nM | 54.1% | 0.25 nM | – | – | – |
| 8: "HBV RNAi agents numbered 1 to 10"; "The RNAi agents used are listed in Table 8E" (18-mer format) (sense CAGCAAUGUCAACGACCGA; antisense UCGGUCGUUGACAUUGCUG; chemistry not given here) [Number 8] | 37.5% | 62.5% | 0.177 nM | 57.8% | 42.2% | 0.025 nM | 47.65% | 0.1 nM | – | – | – |
| 3: "HBV RNAi agents numbered 1 to 10"; "The RNAi agents used are listed in Table 8E" (18-mer format) (sense CCAUACUGCGGAACUCCUA; antisense UAGGAGUUCCGCAGUAUGG; chemistry not given here) [Number 3] | 49.8% | 50.2% | 0.016 nM | 38.7% | 61.3% | 0.111 nM | 44.25% | 0.06 nM | – | – | – |
| OCCOCCOCCO [glycol, triethylene glycol] | – | – | – | – | – | – | – | – | increased stability | – | increased stability |
| 11: "An 18-mer ... with the sequences of Number 11E in Table 10"; "an additional HBV RNAi agent, HBV 279" (sense GGUUCUUCUGGAUUAUCAA; antisense UUGAUAAUCCAGAAGAACC; chemistry not given here) | 65.39% | 34.61% | 0.105 nM | 54% | 46% | 0.039 nM | 59.695% | 0.07 nM | – | – | – |
| 6: "HBV RNAi agents numbered 1 to 10"; "The RNAi agents used are listed in Table 8E" (18-mer format) (sense GGCUGUAGGCAUAAAUUGG; antisense CCAAUUUAUGCCUACAGCC; chemistry not given here) [Number 6] | 37.3% | 62.7% | 0.13 nM | 39% | 61% | 0.008 nM | 38.15% | 0.07 nM | – | – | – |
| OCCOCCOCCO [Triethylene glycol] | – | – | – | – | – | – | – | – | – | allow the RNAi agent to perform RNA interference | – |
| 4: "HBV RNAi agents numbered 1 to 10"; "The RNAi agents used are listed in Table 8E" (18-mer format) (sense GAGGCUGUAGGCAUAAAUU; antisense AAUUUAUGCCUACAGCCUC; chemistry not given here) [Number 4] | 43.3% | 56.7% | 0.056 nM | 48.6% | 51.4% | 0.017 nM | 45.95% | 0.04 nM | – | – | – |
| C1C2CC3CC1CC(C2)C3 [Adamantane] | – | – | – | – | – | – | – | – | – | allow the RNAi agent to perform RNA interference | – |
| 5: "One sequence used was designated siHBV_1599_18mer_CAM, and corresponds to Number 5 in Table 8E" (sense CCGUGUGCACUUCGCUUCA; antisense UGAAGCGAAGUGCACACGG; chemistry not given here) | 41.3% | 58.7% | 0.013 nM | 37.8% | 62.2% | 0.127 nM | 39.55% | 0.07 nM | – | – | – |
